Data on two compounds can be found in patent US8865914B2, “Fluorescent probes for detection of copper” (The Regents of the University of California, priority 2012, dated 2014).

Series [1] can be described thus: Spectroscopic fluorescence response to Cu(I) and its pH dependency in HEPES buffer. The settings on record: for fluorescence response to Cu(I): 20 mM HEPES, pH 7; for sensitivity of fluorescence to pH changes: physiological pH range. It is filed as physicochemical. The protocol: (§1) Millipore water was used to prepare all aqueous solutions. All spectroscopic measurements were performed in 20 mM HEPES buffer, pH 7.0. Absorption spectra were recorded on a Varian Cary 50 spectrophotometer (Walnut Creek, Calif.) and fluorescence spectra were recorded on a Photo Technology International Quanta Master 4 L-format scan spectrofluorometer (Lawrenceville, N.J.) equipped with an LPS-220B 75-W xenon lamp and power supply, A-1010B lamp housing with integrated igniter, switchable 814 photocounting/analog photomultiplier detection unit, and MD5020 motor driver. Samples for absorption and emission measurements were contained in 1-cm×1-cm quartz cuvettes (1.4-mL volume, Starna, Atascadero, Calif.). Metals used in the selectivity assay were derived from their chloride salts or nitrate salts. The binding affinity of Cu^+ to the dyes was measured using thiourea as a competitive ligand to provide a buffered Cu^+ solution. Briefly, a 1-2 μM solution of dye was made in 20 mM HEPES, pH 7.0 and buffered with a known concentration of thiourea from a 500 mM stock in MilliQ H2O. Cu(I) was delivered in the form of [Cu(MeCN)4][PF6] from an acetonitrile stock solution (2 or 10 mM). The maximum acetonitrile concentration was 0.1%; this concentration of acetonitrile is not high enough to effectively compete with the dyes for Cu^+. Stability constants for thiourea binding were taken from the literature: β12=2.0×10^12, β13=2.0×10^14, β14=3.4×10^15. Martell, A. E.; Smith, R. M. Critical Stability Constants; Plenum Press: New York, 1989. The apparent dissociation constant (Kd) was determined using the following equation: (F−Fmin)/(Fmax−Fmin)=[Cu^+]/(Kd+[Cu^+]), where F is the observed fluorescence; Fmax is the fluorescence for the Cu^+:dye complex; Fmin is the fluorescence for the dye; and [Cu^+] is the ‘free’ Cu^+ available for complexation, which was calculated using the stability constants for thiourea and standard competition equilibrium expressions.

Series [2] in a line: Metal selectivity assay (fluorescence response to various metal ions). It is filed as binding. The settings on record: 20 mM HEPES, pH 7. As for the experimental part:
as §1, with “Briefly, a 1-2 μM solution of dye was made in 20 mM HEPES, pH 7.0 and buffered with a known concentration of thiourea from a 500 mM stock in MilliQ H2O. Cu(I) was delivered in the form of [Cu(MeCN)4][PF6] from an acetonitrile stock solution (2 or 10 mM). The maximum acetonitrile concentration was 0.1%; this concentration of acetonitrile is not high enough to effectively compete with the dyes for Cu^+. Stability constants for thiourea binding were taken from the literature: β12=2.0×10^12, β13=2.0×10^14, β14=3.4×10^15. Martell, A. E.; Smith, R. M. Critical Stability Constants; Plenum Press: New York, 1989.” left out

In the next series the test system is HEK293 cells. The series is described as follows: Flow cytometry and confocal live-cell imaging of intracellular Cu^+. It is filed as cell-based, Human. The settings on record: HEK293 cells loaded with 100 μM copper chloride, with or without copper chelator. The protocol: Cells were grown in the Tissue Culture Facility at the University of California, Berkeley with expert technical assistance from Ann Fischer and Michelle Yasukawa. HEK (Human Embryonic Kidney) 293T cells were cultured in Dulbecco's Modified Eagle Medium (DMEM, Invitrogen, Carlsbad, Calif.) supplemented with 10% Fetal Bovine Serum (FBS, Invitrogen, Carlsbad, Calif.) and glutamine (2 mM). Two days before imaging, cells were passed and plated on 12-mm glass coverslips coated with poly-L-lysine ([…], Sigma, St. Louis, Mo.). For all experiments, solutions of dyes (from 5 mM stocks in DMSO) were made in Dulbecco's Phosphate buffered saline (DPBS, GIBCO) without calcium chloride, magnesium chloride, magnesium sulfate, sodium bicarbonate, or phenol red. For copper treatment, HEK 293T cells were cultured as described above. One day prior to imaging, 100 μM CuCl2 was added to cells from a 100 mM aqueous stock solution. Cells were then incubated at 37° C., 5% CO2. After 10-12 hours, the media was exchanged for DPBS. Flowcytometry were performed with LSRFortessaTM cell analyzer (BD Biosciences) equipping 640 nm red laser and PE-Cy7 band pass filter. Cells were prepared as described above, and then 3-5 μM CS788 or […] […] Confocal fluorescence images were acquired at the Molecular Imaging Center at the University of California, Berkeley. […]

A further series has as its system SKH1 mice. The series is described as follows: Fluorescence imaging experiments in living mice. It is filed as in vivo. Conditions: for detection of endogenous levels of copper in mice: fluorescence imaging in mice; for detection of changes in copper levels in living mice: mice injected i.p. with copper chloride, copper chelator (ATN-224) or both, then dye. The protocol:
Fluorescence images of mice were acquired using a Xenogen IVIS Spectrum instrument. SKH1 mice were obtained from Charles River Labs. Mice were single or group-housed on a 12:12 light-dark cycle at 22° C. with free access to food and water. SKH1 mice, aged 5-10 weeks, were anesthetized with isoflurane and injected with 1) DPBS (i.p., 100 μL), 2) CuCl2 (i.p., 5 mg/kg in 50 μL of DPBS) and DBPS (i.p., 50 μL), 3) CuCl2 (i.p., 5 mg/kg in 50 μL of DPBS) and ATN-224 (i.p., 5 mg/kg in 50 μL of DPBS), or 4) ATN-224 (i.p., 5 mg/kg in 50 μL of DPBS) and DBPS (i.p., 50 μL). 0-24 hours later, the mice were anesthetized with isoflurane and injected (i.p.) with DPBS (50 μL) or a dye (0.1 mM, 50 μL) and imaged immediately or up to 10 days later. All animal studies were approved and performed according to the guidelines of the Animal Care and Use Committee of the University of California, Berkeley.

`CSCCCNc1ccc(OC2=C(/C=C/C3=[N+](CCC(=O)OCOC(C)=O)c4ccccc4C3(C)C)CCC/C2=C\C=C2\N(CCC(=O)OCOC(C)=O)c3ccccc3C2(C)C)cc1SCCCSC.[Br-]` [CS790AM]: in series [1], the “fluorescence response to Cu(I)” value is “large fluorescence increase” and the “sensitivity of fluorescence to pH changes” value is “insensitive to pH changes”. Further, the “selectivity for Cu(I) over other transition metals, alkali metals and alkali earth metals” value in series [2] is listed as “bind selectively to Cu(I)”. For the same compound, the “detection of copper level changes in living cells” value in the series on HEK293 cells is recorded as “increased fluorescence in cells loaded with copper chloride”. Besides, in the series with SKH1 mice, the “detection of endogenous levels of copper in mice” value is on record as “able to detect endogenous levels of copper” and the “detection of changes in copper levels in living mice” value was “can detect changes in copper levels in mice”. For the same compound, the “changes in integrated fluorescence from individual mice” value with SKH1 mice (two-tailed Student's t-test, P<0.05, n=3, except the change between CS790AM and copper, ATN-244, and CS790AM) is listed as “statistically significant”.
As to `CCCN1/C(=C/C=C2\CCCC(/C=C/C3=[N+](CCC)c4ccccc4C3(C)C)=C2Oc2ccc(N(CCSCCSCC)CCSCCSCC)cc2)C(C)(C)c2ccccc21.[I-]` [CS788], in series [1], the “fluorescence response to Cu(I)” value is given as “large fluorescence increase” and the “sensitivity of fluorescence to pH changes” value is listed as “insensitive to pH changes”. The “selectivity for Cu(I) over other transition metals, alkali metals and alkali earth metals” value in series [2] was “bind selectively to Cu(I)”. Besides, the “detection of copper level changes in living cells” value in the series on HEK293 cells is “increased fluorescence in cells loaded with copper chloride”. In the series with SKH1 mice, the “detection of endogenous levels of copper in mice” value was “able to detect endogenous levels of copper” and the “detection of changes in copper levels in living mice” value is given as “can detect changes in copper levels in mice”.
